The values below come from patent EP0719271B1, “5-(1-FLUORO-VINYL)-1H-PYRIMIDINE-2,4-DIONE DERIVATIVES USEFUL AS ANTINEOPLASTIC AGENTS” (MERRELL PHARMACEUTICALS INC., priority 1993, dated 1995).

This experiment concerns KB cells. Briefly: Antiproliferative activity against KB cells, cell viability by colorimetric MTT reduction assay. Format: cell-based. The settings on record: Homo sapiens. The method, then:
Plate KB cells (2X10^3 cells/well) and allow to grow for 18 hours. Treat with 2'-deoxy-5-(1-fluoroethenyl)uridine (15ng/mL) for 24 hours. Wash the compound and expose cells to 5-fluorouracil for another 72 hours. Determine the cell viability by a colorimetric assay, essentially as described by Carmichael et al. [Cancer Res. 47, 936 (1987)], whereby the cellular reduction of MTT [3-(4,5-dimethylthiazol-2-yl)-2,5-diphenyltetrazolium bromide] is measured.
Calculate IC50 values for the individual treatments as well as for the combined treatments of 2'-deoxy-5-(1-fluoroethenyl)-uridine with 5-fluorouracil. The IC50 values at the various concentrations of 2'-deoxy-5-(1-fluoroethenyl)-uridine alone, 5-fluorouracil alone and 2'-deoxy-5-(1-fluoroethenyl)-uridine in combination with 5-fluorouracil are presented in Table 1.
Background: Tetrazolium dyes change colour on reduction, which living cells bring about.

For orientation: IC50 means the concentration needed to halve the response being measured.

Read-outs that look alike come from different tables or passages of the source.

Turning to `C=C(F)c1cn([C@H]2C[C@H](O)[C@@H](CO)O2)c(=O)[nH]c1=O` [2'-Deoxy-5-(1-fluoroethenyl)-uridine, 2'-deoxy-5-(1-fluoroethenyl)uridine], the 50% inhibitory concentration (IC50) (individual treatment (compound alone), KB cells, 2X10^3 cells/well, MTT viability, read-out: IC50) was found to be 9.4 µM.

With `O=c1[nH]cc(F)c(=O)[nH]1` [5-Fluorouracil], the IC50 (KB) turned out to be 60 µM.
